Test results reported in US6576628B1, “3-aryl-succinamido-hydroxamic acids, methods for producing said acids and medicaments containing the same” (Roche Diagnostics GmbH, priority 1997, dated 2003).

Key:
Assay type in all cases: biochemical
MMP1 = molecular target: T1, MMP1 (Homo sapiens, UniProt P03956); test: MMP1 inhibition assay in analogy to HNC (MMP8) assay; details: for inhibition at 0.2 µM: inhibitor at 200 nM, activated MMP1
T1 sequence (P03956 100-469): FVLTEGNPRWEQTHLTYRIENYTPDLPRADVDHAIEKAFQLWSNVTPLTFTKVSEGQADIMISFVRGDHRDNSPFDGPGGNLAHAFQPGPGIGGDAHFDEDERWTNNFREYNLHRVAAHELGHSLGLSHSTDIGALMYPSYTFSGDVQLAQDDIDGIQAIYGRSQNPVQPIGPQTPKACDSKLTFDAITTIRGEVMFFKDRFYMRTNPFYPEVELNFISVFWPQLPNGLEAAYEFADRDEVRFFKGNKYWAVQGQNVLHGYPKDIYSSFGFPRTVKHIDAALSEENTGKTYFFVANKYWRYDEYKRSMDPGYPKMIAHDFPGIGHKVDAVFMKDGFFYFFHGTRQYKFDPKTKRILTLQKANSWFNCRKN
Protocol: In order to determine the inhibitory potential of compounds of the general formula I on MMPs such as HNC, the catalytic domain is incubated (isolation and purification see Schnierer, S., Kleine, T., Gote, T., Hillemann, A., Knäuper, V., Tschesche, H., Biochem. Biophys. Res. Commun. (1993), 191, 319-326). Subsequently the initial reaction rate of a standard substrate is measured as described in Grams F. et al., FEBS 335 (1993) 76-80). The results are evaluated in the usual manner (see e.g. Dixon, M., Biochem. J. (1953) 55, 170-202).
The synthetic collagenase substrate is a heptapeptide coupled C-terminally with dinitrophenol (DNP). This DNP residue quenches the fluorescence of the Trp of the heptapeptide. After cleavage of a tripeptide containing the DNP residue, the measurable fluorescence increases.
A solution of enzyme and inhibitor is prepared in assay buffer at 25° C. The reaction is started by addition of the substrate to the solution. The cleavage of the fluorogenic substrate is measured by fluorescence spectroscopy (excitation and emission wavelength at 280 and 350 nm respectively). The IC50 value is determined for an inhibitor concentration at which the reaction rate is halved.
An activation is additionally necessary for MMP2 and MMP1.

[1] = molecular target: T2, catalytic domain (Met80-Gly242) of the human neutrophilic collagenase (MMP8) (Homo sapiens, UniProt P22894); test: MMP8 (HNC) catalytic domain fluorogenic substrate inhibition assay; details: 8 nM catalytic domain, 10 μM DNP-heptapeptide substrate, 25° C., pH 7.6
T2 construct: catalytic domain (Met80-Gly242) of the human neutrophilic collagenase (MMP8); made in house
Protocol: 50 mM Tris/HCl pH 7.6 (Tris=Tris-(hydroxymethyl)-aminomethane)
100 mM NaCl/10 mM CaCl2/5% MeOH (if required)
8 nM catalytic domain (Met80-Gly242) of the human neutrophilic collagenase (MMP8)

MMP2 = molecular target: T3, MMP2 (Homo sapiens, UniProt P08253); test: MMP2 inhibition assay in analogy to HNC (MMP8) assay; details: activated MMP2; other concentrations than MMP8 assay
T3 sequence (P08253 110-660): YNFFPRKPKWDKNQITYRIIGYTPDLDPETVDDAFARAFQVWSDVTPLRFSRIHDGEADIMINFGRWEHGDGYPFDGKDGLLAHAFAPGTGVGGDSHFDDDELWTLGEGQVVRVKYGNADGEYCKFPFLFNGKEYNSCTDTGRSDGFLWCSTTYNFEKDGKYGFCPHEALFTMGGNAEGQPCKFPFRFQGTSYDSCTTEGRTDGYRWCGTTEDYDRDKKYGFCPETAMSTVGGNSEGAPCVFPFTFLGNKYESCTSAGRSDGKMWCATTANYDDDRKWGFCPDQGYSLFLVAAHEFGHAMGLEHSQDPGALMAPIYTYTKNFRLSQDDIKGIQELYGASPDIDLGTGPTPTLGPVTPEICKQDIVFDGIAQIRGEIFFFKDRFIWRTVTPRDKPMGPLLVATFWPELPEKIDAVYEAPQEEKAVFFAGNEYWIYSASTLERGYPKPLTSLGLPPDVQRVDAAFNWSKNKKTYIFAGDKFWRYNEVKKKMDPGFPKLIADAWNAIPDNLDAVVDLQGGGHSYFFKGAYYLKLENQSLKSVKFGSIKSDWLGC

T2 sequence (P22894 100-262): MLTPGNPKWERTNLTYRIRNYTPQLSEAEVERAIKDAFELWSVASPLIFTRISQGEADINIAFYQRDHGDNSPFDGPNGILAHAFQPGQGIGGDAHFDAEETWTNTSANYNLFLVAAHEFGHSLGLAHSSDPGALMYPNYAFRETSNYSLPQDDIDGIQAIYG

Structure (SMILES)	inhibition at 0.2 µM (MMP1)	IC50 [1]	IC50 (MMP2)	inhibition of MMP1 compared with Marimastat (in words) (MMP1)	selectivity relative to MMP1 (in words) (MMP1; compared with Marimastat, MMP2/MMP8 versus MMP1)
CNC(=O)[C@@H](NC(=O)[C@H](CC(C)C)[C@H](O)C(=O)NO)C(C)(C)C [Marimastat, N2-[3S-hydroxy-4-(N-hydroxyamino)-2R-isobutyl-succinyl)-L-tert-leucine-N1-methylamide, reference compound]	100%	–	–	–	–
CNC(=O)[C@@H](NC(=O)C(c1ccc(-c2ccccc2)cc1)C(O)C(=O)NO)C(C)(C)C (mixture of isomers) [example 1.5, 2-Biphenyl-4-yl-N1-((1S)-2,2-dimethyl-1-methyl-carbamoyl-propyl)-3,N4-dihydroxy-succinamide]	20%	18 nM	23 nM	substantially poorer than by Marimastat	clear selectivity advantage relative to MMP1
